According to patent US20100016547A1, “Glycosilated Peptide and Medicine Comprising It as an Effective Ingredient” (priority 2005, published 2010):
Peptide text beside a SMILES is read from it. * marks the point of attachment. NH(β-GlcNAc) = CC(=O)N[C@@H]1[C@@H](O)[C@H](O)[C@@H](CO)O[C@H]1N*

Key:
GLP-1 receptor [1] = biological target: T1, GLP-1 receptor (Homo sapiens, UniProt P43220); assay: Assay for production of cAMP
Protocol: Assay for Production of cAMP
After stirring at room temperature for an hour, the cells were lysed with Triton X-100 (final concentration: 1%).
Quantity of cAMP was determined using cAMP Femtomolar Kit (CIS Bio International). The reaction solution (1 μL) was moved to a new 384-well plate and diluted by adding 9 μL of dilution buffer. Next, each 5 μL of cAMP-XL665 solution and anti-cAMP cryptate solution of the Kit was added, the mixture was incubated at room temperature for an hour, and time-resolved fluorescence was measured using RUBYstar (BMG LABTECH).

GLP-1 receptor [2] = biological target: T1, GLP-1 receptor
Protocol: After being incubated at room temperature for 2 hours, the solution was filtered through a unifilter 96GF/C plate (Perkin-Elmer) pretreated with 1% polyethylenimine containing 0.5% BSA, washed with 25 mM HEPES buffer solution (pH 7.4) containing 0.5% BSA, and radioactivity remained on the filter was measured by a gamma counter (Top Counter; Perkin-Elmer).

T1 sequence (P43220 24-463, species assumed): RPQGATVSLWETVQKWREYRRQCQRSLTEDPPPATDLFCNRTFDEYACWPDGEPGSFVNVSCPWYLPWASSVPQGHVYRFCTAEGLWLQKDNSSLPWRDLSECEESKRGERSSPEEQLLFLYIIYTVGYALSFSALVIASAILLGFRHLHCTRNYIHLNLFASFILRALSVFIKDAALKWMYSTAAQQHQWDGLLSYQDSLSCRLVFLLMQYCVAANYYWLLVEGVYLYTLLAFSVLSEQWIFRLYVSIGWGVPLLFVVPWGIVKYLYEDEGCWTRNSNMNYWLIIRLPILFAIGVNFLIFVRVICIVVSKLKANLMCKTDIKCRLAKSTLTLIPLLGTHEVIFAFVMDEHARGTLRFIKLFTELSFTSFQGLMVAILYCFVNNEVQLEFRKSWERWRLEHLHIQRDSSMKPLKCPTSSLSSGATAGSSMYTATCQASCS

EC50 (GLP-1 receptor [1])	IC50 (GLP-1 receptor [2])	Compound
0.92 nM	2.9 nM	CC[C@H](C)[C@H](NC(=O)[C@H](Cc1ccccc1)NC(=O)[C@H](CCC(=O)O)NC(=O)[C@H](CC(=O)N[C@@H]1O[C@H](CO)[C@@H](O[C@@H]2O[C@H](CO[C@]3(C(=O)O)C[C@H](O)[C@@H](NC(C)=O)[C@H]([C@H](O)[C@H](O)CO)O3)[C@H](O)[C@H](O)[C@H]2O)[C@H](O)[C@H]1NC(C)=O)NC(=O)[C@H](C)NC(=O)[C@H](C)NC(=O)[C@H](CCC(N)=O)NC(=O)CNC(=O)[C@H](CCC(=O)O)NC(=O)[C@H](CC(C)C)NC(=O)[C@H](Cc1ccc(O)cc1)NC(=O)[C@H](CO)NC(=O)[C@H](CO)NC(=O)[C@@H](NC(=O)[C@H](CC(=O)O)NC(=O)[C@H](CO)NC(=O)[C@@H](NC(=O)[C@H](Cc1ccccc1)NC(=O)[C@@H](NC(=O)CNC(=O)[C@H](CCC(=O)O)NC(=O)[C@H](C)NC(=O)[C@@H](N)Cc1c[nH]cn1)[C@@H](C)O)[C@@H](C)O)C(C)C)C(=O)N[C@@H](C)C(=O)N[C@@H](Cc1c[nH]c2ccccc12)C(=O)N[C@@H](CC(C)C)C(=O)N[C@H](C(=O)N[C@@H](CCCCN)C(=O)NCC(=O)N[C@@H](CCCNC(=N)N)C(N)=O)C(C)C [GL26NS6]
0.11 nM	0.76 nM	CC[C@H](C)[C@H](NC(=O)[C@H](Cc1ccccc1)NC(=O)[C@H](CCC(=O)O)NC(=O)[C@H](CCCCN)NC(=O)[C@H](C)NC(=O)[C@H](C)NC(=O)[C@H](CCC(N)=O)NC(=O)CNC(=O)[C@H](CCC(=O)O)NC(=O)[C@H](CC(C)C)NC(=O)[C@H](Cc1ccc(O)cc1)NC(=O)[C@H](CO)NC(=O)[C@H](CO)NC(=O)[C@@H](NC(=O)[C@H](CC(=O)O)NC(=O)[C@H](CO)NC(=O)[C@@H](NC(=O)[C@H](Cc1ccccc1)NC(=O)[C@@H](NC(=O)CNC(=O)[C@H](CCC(=O)O)NC(=O)[C@H](C)NC(=O)[C@@H](N)Cc1c[nH]cn1)[C@@H](C)O)[C@@H](C)O)C(C)C)C(=O)N[C@@H](C)C(=O)N[C@@H](Cc1c[nH]c2ccccc12)C(=O)N[C@@H](CC(C)C)C(=O)N[C@H](C(=O)N[C@@H](CC(=O)N[C@@H]1O[C@H](CO)[C@@H](O[C@@H]2O[C@H](CO)[C@H](O)[C@H](O)[C@H]2O)[C@H](O)[C@H]1NC(C)=O)C(=O)NCC(=O)N[C@@H](CCCNC(=N)N)C(N)=O)C(C)C [GL34NL]
0.33 nM	2 nM	CC[C@H](C)[C@H](NC(=O)[C@H](Cc1ccccc1)NC(=O)[C@H](CCC(=O)O)NC(=O)[C@H](CC(=O)N[C@@H]1O[C@H](CO)[C@@H](O[C@@H]2O[C@H](CO)[C@H](O)[C@H](O)[C@H]2O)[C@H](O)[C@H]1NC(C)=O)NC(=O)[C@H](C)NC(=O)[C@H](C)NC(=O)[C@H](CCC(N)=O)NC(=O)CNC(=O)[C@H](CCC(=O)O)NC(=O)[C@H](CC(C)C)NC(=O)[C@H](Cc1ccc(O)cc1)NC(=O)[C@H](CO)NC(=O)[C@H](CO)NC(=O)[C@@H](NC(=O)[C@H](CC(=O)O)NC(=O)[C@H](CO)NC(=O)[C@@H](NC(=O)[C@H](Cc1ccccc1)NC(=O)[C@@H](NC(=O)CNC(=O)[C@H](CCC(=O)O)NC(=O)[C@H](C)NC(=O)[C@@H](N)Cc1c[nH]cn1)[C@@H](C)O)[C@@H](C)O)C(C)C)C(=O)N[C@@H](C)C(=O)N[C@@H](Cc1c[nH]c2ccccc12)C(=O)N[C@@H](CC(C)C)C(=O)N[C@H](C(=O)N[C@@H](CCCCN)C(=O)NCC(=O)N[C@@H](CCCNC(=N)N)C(N)=O)C(C)C [GL26NL]
8.1 nM	41 nM	CC[C@H](C)[C@H](NC(=O)[C@H](Cc1ccccc1)NC(=O)[C@H](CCC(=O)O)NC(=O)[C@H](CCCCN)NC(=O)[C@H](C)NC(=O)[C@H](C)NC(=O)[C@H](CCC(N)=O)NC(=O)CNC(=O)[C@H](CCC(=O)O)NC(=O)[C@H](CC(C)C)NC(=O)[C@H](CC(=O)N[C@@H]1O[C@H](CO)[C@@H](O)[C@H](O)[C@H]1NC(C)=O)NC(=O)[C@H](CO)NC(=O)[C@H](CO)NC(=O)[C@@H](NC(=O)[C@H](CC(=O)O)NC(=O)[C@H](CO)NC(=O)[C@@H](NC(=O)[C@H](Cc1ccccc1)NC(=O)[C@@H](NC(=O)CNC(=O)[C@H](CCC(=O)O)NC(=O)[C@H](C)NC(=O)[C@@H](N)Cc1c[nH]cn1)[C@@H](C)O)[C@@H](C)O)C(C)C)C(=O)N[C@@H](C)C(=O)N[C@@H](Cc1c[nH]c2ccccc12)C(=O)N[C@@H](CC(C)C)C(=O)N[C@H](C(=O)N[C@@H](CCCCN)C(=O)NCC(=O)N[C@@H](CCCNC(=N)N)C(N)=O)C(C)C [GL19NG] (H-HAEGTFTSDVSSD(NH(β-GlcNAc))LEGQAAKEFIAWLVKGR-NH2)
0.2 nM	3 nM	CC[C@H](C)[C@H](NC(=O)[C@H](Cc1ccccc1)NC(=O)[C@H](CCC(=O)O)NC(=O)[C@H](CCCCN)NC(=O)[C@H](C)NC(=O)[C@H](C)NC(=O)[C@H](CCC(N)=O)NC(=O)CNC(=O)[C@H](CCC(=O)O)NC(=O)[C@H](CC(C)C)NC(=O)[C@H](Cc1ccc(O)cc1)NC(=O)[C@H](CO)NC(=O)[C@H](CO)NC(=O)[C@@H](NC(=O)[C@H](CC(=O)O)NC(=O)[C@H](CO)NC(=O)[C@@H](NC(=O)[C@H](Cc1ccccc1)NC(=O)[C@@H](NC(=O)CNC(=O)[C@H](CCC(=O)O)NC(=O)[C@H](C)NC(=O)[C@@H](N)Cc1c[nH]cn1)[C@@H](C)O)[C@@H](C)O)C(C)C)C(=O)N[C@@H](C)C(=O)N[C@@H](Cc1c[nH]c2ccccc12)C(=O)N[C@@H](CC(C)C)C(=O)N[C@H](C(=O)N[C@@H](CC(=O)N[C@@H]1O[C@H](CO)[C@@H](O[C@@H]2O[C@H](CO[C@]3(C(=O)O)C[C@H](O)[C@@H](NC(C)=O)[C@H]([C@H](O)[C@H](O)CO)O3)[C@H](O)[C@H](O)[C@H]2O)[C@H](O)[C@H]1NC(C)=O)C(=O)NCC(=O)N[C@@H](CCCNC(=N)N)C(=O)N[C@@H](CC(=O)N[C@@H]1O[C@H](CO)[C@@H](O[C@@H]2O[C@H](CO[C@]3(C(=O)O)C[C@H](O)[C@@H](NC(C)=O)[C@H]([C@H](O)[C@H](O)CO)O3)[C@H](O)[C@H](O)[C@H]2O)[C@H](O)[C@H]1NC(C)=O)C(N)=O)C(C)C [GL3437NS6]

Compound	EC50 (GLP-1 receptor [1])	IC50 (GLP-1 receptor [2])
CC[C@H](C)[C@H](NC(=O)[C@H](Cc1ccccc1)NC(=O)[C@H](CCC(=O)O)NC(=O)[C@H](CC(=O)N[C@@H]1O[C@H](CO)[C@@H](O[C@@H]2O[C@H](CO)[C@@H](O[C@@H]3O[C@H](CO[C@H]4O[C@H](CO)[C@@H](O)[C@H](O)[C@@H]4O[C@@H]4O[C@H](CO)[C@@H](O[C@@H]5O[C@H](CO[C@]6(C(=O)O)C[C@H](O)[C@@H](NC(C)=O)[C@H]([C@H](O)[C@H](O)CO)O6)[C@H](O)[C@H](O)[C@H]5O)[C@H](O)[C@H]4NC(C)=O)[C@@H](O)[C@H](O[C@H]4O[C@H](CO)[C@@H](O)[C@H](O)[C@@H]4O[C@@H]4O[C@H](CO)[C@@H](O[C@@H]5O[C@H](CO[C@]6(C(=O)O)C[C@H](O)[C@@H](NC(C)=O)[C@H]([C@H](O)[C@H](O)CO)O6)[C@H](O)[C@H](O)[C@H]5O)[C@H](O)[C@H]4NC(C)=O)[C@@H]3O)[C@H](O)[C@H]2NC(C)=O)[C@H](O)[C@H]1NC(C)=O)NC(=O)[C@H](C)NC(=O)[C@H](C)NC(=O)[C@H](CCC(N)=O)NC(=O)CNC(=O)[C@H](CCC(=O)O)NC(=O)[C@H](CC(C)C)NC(=O)[C@H](Cc1ccc(O)cc1)NC(=O)[C@H](CO)NC(=O)[C@H](CO)NC(=O)[C@@H](NC(=O)[C@H](CC(=O)O)NC(=O)[C@H](CO)NC(=O)[C@@H](NC(=O)[C@H](Cc1ccccc1)NC(=O)[C@@H](NC(=O)CNC(=O)[C@H](CCC(=O)O)NC(=O)[C@H](C)NC(=O)[C@@H](N)Cc1c[nH]cn1)[C@@H](C)O)[C@@H](C)O)C(C)C)C(=O)N[C@@H](C)C(=O)N[C@@H](Cc1c[nH]c2ccccc12)C(=O)N[C@@H](CC(C)C)C(=O)N[C@H](C(=O)N[C@@H](CCCCN)C(=O)NCC(=O)N[C@@H](CCCNC(=N)N)C(N)=O)C(C)C [GL26NE1]	0.8 nM	11 nM
